The NIST ThermoML archive (doi:10.1016/j.jct.2015.07.005)
Values joined by “and” are separate entries in the source; they are usually repeats but may differ in a detail not shown here. Identical values can stand only once.

Conditions: Gas, Frequency=0.005 MHz, Spherical cavity resonance method

C [methane]
Conditions	speed of sound
280.01 K, 500.03 kPa	434.02 m/s and 434.03 m/s
280.01 K, 500.04 kPa	434.03 m/s
280.01 K, 500.18 kPa	434.03 m/s
280.02 K, 500.03 kPa	434.03 m/s and 434.03 m/s
280.02 K, 500.04 kPa	434.03 m/s and 434.02 m/s and 434.03 m/s
280.02 K, 500.18 kPa	434.03 m/s
280.02 K, 500.19 kPa	434.03 m/s and 434.03 m/s and 434.03 m/s
293.27 K, 394.31 kPa	443.98 m/s and 443.97 m/s and 443.97 m/s
293.27 K, 394.32 kPa	443.97 m/s and 443.97 m/s and 443.97 m/s
293.28 K, 394.32 kPa	443.97 m/s [middle of 6 runs]
293.28 K, 394.33 kPa	443.98 m/s and 443.98 m/s and 443.97 m/s
293.28 K, 394.34 kPa	443.98 m/s
293.28 K, 394.35 kPa	443.98 m/s and 443.98 m/s
293.29 K, 394.36 kPa	443.98 m/s and 443.97 m/s
319.52 K, 429.9 kPa	462.06 m/s
319.53 K, 429.91 kPa	462.06 m/s
319.55 K, 428.61 kPa	461.97 m/s and 461.97 m/s
319.87 K, 471.86 kPa	462.12 m/s
319.87 K, 471.87 kPa	462.12 m/s
319.88 K, 471.88 kPa	462.12 m/s
319.88 K, 471.91 kPa	462.13 m/s
319.89 K, 471.91 kPa	462.13 m/s and 462.13 m/s
319.89 K, 471.92 kPa	462.13 m/s
319.89 K, 471.93 kPa	462.12 m/s and 462.13 m/s
319.94 K, 430.41 kPa	462.32 m/s
319.94 K, 430.42 kPa	462.32 m/s
319.95 K, 429.13 kPa	462.24 m/s
319.96 K, 429.13 kPa	462.24 m/s
339.35 K, 456 kPa	474.76 m/s and 474.76 m/s
339.88 K, 456.67 kPa	475.08 m/s
339.89 K, 456.67 kPa	475.08 m/s
359.27 K, 481.98 kPa	486.94 m/s
359.28 K, 480.58 kPa	486.84 m/s
359.28 K, 481.81 kPa	486.76 m/s
359.28 K, 481.99 kPa	486.94 m/s
359.29 K, 480.58 kPa	486.85 m/s
359.85 K, 482.79 kPa	487.31 m/s
359.86 K, 482.59 kPa	487.15 m/s
359.86 K, 482.79 kPa	487.31 m/s
359.87 K, 482.6 kPa	487.15 m/s
360.03 K, 529.63 kPa	487.35 m/s
360.03 K, 529.64 kPa	487.35 m/s and 487.35 m/s
360.03 K, 529.66 kPa	487.35 m/s
360.04 K, 529.66 kPa	487.34 m/s and 487.34 m/s
360.04 K, 529.67 kPa	487.33 m/s and 487.33 m/s
379.2 K, 507.87 kPa	498.66 m/s and 498.66 m/s
379.78 K, 508.56 kPa	498.97 m/s and 498.98 m/s
399.24 K, 533.63 kPa	510.01 m/s and 510.02 m/s
399.82 K, 534.48 kPa	510.39 m/s and 510.39 m/s
399.99 K, 471.94 kPa	510.49 m/s and 510.5 m/s and 510.49 m/s
399.99 K, 471.95 kPa	510.47 m/s and 510.48 m/s
399.99 K, 471.96 kPa	510.47 m/s
399.99 K, 471.97 kPa	510.47 m/s
399.99 K, 471.98 kPa	510.47 m/s
400 K, 471.96 kPa	510.46 m/s
419.54 K, 559.42 kPa	521.02 m/s
419.55 K, 559.43 kPa	521.03 m/s
419.56 K, 559.63 kPa	521.2 m/s and 521.2 m/s
419.99 K, 560 kPa	521.28 m/s
420 K, 560.01 kPa	521.28 m/s and 521.29 m/s
420.02 K, 560.19 kPa	521.47 m/s
420.02 K, 560.2 kPa	521.46 m/s
439.94 K, 496.85 kPa	532.03 m/s
439.94 K, 496.86 kPa	532.02 m/s and 532.03 m/s
439.94 K, 496.87 kPa	532.02 m/s
439.94 K, 496.88 kPa	532.01 m/s [middle of 5 runs]
449.69 K, 597.89 kPa	537.24 m/s
449.69 K, 597.9 kPa	537.24 m/s [middle of 6 runs]
449.7 K, 597.88 kPa	537.22 m/s
449.7 K, 597.89 kPa	537.22 m/s and 537.23 m/s
449.7 K, 597.9 kPa	537.23 m/s and 537.24 m/s and 537.23 m/s
449.71 K, 597.88 kPa	537.22 m/s and 537.21 m/s
449.71 K, 597.89 kPa	537.22 m/s [middle of 5 runs]
449.72 K, 597.88 kPa	537.2 m/s
449.72 K, 597.89 kPa	537.21 m/s [middle of 4 runs]
449.73 K, 597.86 kPa	537.19 m/s
449.73 K, 597.87 kPa	537.2 m/s and 537.19 m/s and 537.19 m/s
449.74 K, 597.86 kPa	537.19 m/s
449.74 K, 597.87 kPa	537.2 m/s and 537.2 m/s
449.77 K, 597.88 kPa	537.2 m/s and 537.2 m/s
449.78 K, 597.9 kPa	537.2 m/s
449.79 K, 597.9 kPa	537.2 m/s
479.91 K, 495.54 kPa	552.38 m/s
479.92 K, 495.51 kPa	552.4 m/s and 552.39 m/s
479.92 K, 495.52 kPa	552.4 m/s
479.92 K, 495.54 kPa	552.39 m/s
479.92 K, 495.55 kPa	552.39 m/s
479.92 K, 495.57 kPa	552.38 m/s and 552.39 m/s
479.92 K, 539.8 kPa	552.38 m/s and 552.39 m/s
479.92 K, 539.81 kPa	552.39 m/s
